Measured values: the NIST ThermoML archive (doi:10.1021/je201116t)

Experiment: xn = mol fraction of the nth substance listed
Conditions: 101 kPa, Liquid; for viscosity: Capillary tube (Ostwald / Ubbelohde) method

CCC(=O)[O-].CC[NH+]1CCNCC1 [N-ethylpiperazinium propionate] + CCO
Conditions | mass density, 298.15 K [kg/m3] | mass density, 303.15 K [kg/m3] | mass density, 308.15 K [kg/m3] | mass density, 313.15 K [kg/m3] | viscosity, 298.15 K [mPa·s] | viscosity, 303.15 K [mPa·s] | viscosity, 308.15 K [mPa·s] | viscosity, 313.15 K [mPa·s]
x2 = 0 | 1008.36 | 1004.38 | 1000.33 | 996.237 | 243.49 | 164.81 | 113.44 | 80.93
x2 = 0.0971 | 1002.79 | 998.809 | 994.769 | 990.695 | 170.13 | 119.44 | 85.41 | 61.23
x2 = 0.2017 | 995.311 | 991.322 | 987.293 | 983.232 | 109.9 | 82.6 | 60.3 | 44.79
x2 = 0.3033 | 986.576 | 982.598 | 978.579 | 974.526 | 75.85 | 55.8 | 42.03 | 32.1
x2 = 0.3983 | 976.628 | 972.658 | 968.645 | 964.592 | 48.89 | 37.01 | 28.65 | 22.63
x2 = 0.5001 | 963.41 | 959.429 | 955.408 | 951.35 | 29.59 | 23.34 | 18.57 | 15.06
x2 = 0.6006 | 946.741 | 942.745 | 938.702 | 934.623 | 17.18 | 14 | 11.54 | 9.602
x2 = 0.6994 | 925.277 | 921.231 | 917.149 | 913.029 | 9.403 | 7.923 | 6.734 | 5.766
x2 = 0.8001 | 895.282 | 891.163 | 887.012 | 882.818 | 4.925 | 4.279 | 3.74 | 3.286
x2 = 0.8998 | 852.465 | 848.243 | 843.982 | 839.679 | 2.437 | 2.175 | 1.947 | 1.749

CCC(=O)[O-].CC[NH+]1CCNCC1 [N-ethylpiperazinium propionate] + CCCCO
Conditions | mass density, 298.15 K [kg/m3] | mass density, 303.15 K [kg/m3] | mass density, 308.15 K [kg/m3] | mass density, 313.15 K [kg/m3] | viscosity, 298.15 K [mPa·s] | viscosity, 303.15 K [mPa·s] | viscosity, 308.15 K [mPa·s] | viscosity, 313.15 K [mPa·s]
x2 = 0 | 1008.36 | 1004.38 | 1000.33 | 996.237 | 243.49 | 164.81 | 113.44 | 80.93
x2 = 0.1025 | 998.465 | 994.495 | 990.478 | 986.427 | 177.49 | 122.06 | 84.94 | 61.07
x2 = 0.2018 | 987.497 | 983.536 | 979.527 | 975.484 | 133.79 | 91.02 | 63.82 | 46.53
x2 = 0.2999 | 975.365 | 971.427 | 967.437 | 963.409 | 98.72 | 67.32 | 47.84 | 35.22
x2 = 0.3989 | 961.397 | 957.475 | 953.503 | 949.491 | 73.16 | 50.02 | 35.72 | 26.48
x2 = 0.5016 | 944.783 | 940.876 | 936.907 | 932.906 | 53.48 | 36.42 | 26.02 | 19.37
x2 = 0.6004 | 926.29 | 922.385 | 918.422 | 914.42 | 38.82 | 26.35 | 18.8 | 14.05
x2 = 0.7012 | 903.96 | 900.045 | 896.078 | 892.071 | 27.07 | 18.12 | 12.92 | 9.675
x2 = 0.8008 | 877.764 | 873.84 | 869.866 | 865.851 | 17.51 | 11.84 | 8.502 | 6.434
x2 = 0.8995 | 845.961 | 842.05 | 838.083 | 834.079 | 9.611 | 6.701 | 4.966 | 3.87

CCC(=O)[O-].CC[NH+]1CCNCC1 [N-ethylpiperazinium propionate] + CCCO
Conditions | mass density, 298.15 K [kg/m3] | mass density, 303.15 K [kg/m3] | mass density, 308.15 K [kg/m3] | mass density, 313.15 K [kg/m3] | viscosity, 298.15 K [mPa·s] | viscosity, 303.15 K [mPa·s] | viscosity, 308.15 K [mPa·s] | viscosity, 313.15 K [mPa·s]
x2 = 0 | 1008.36 | 1004.38 | 1000.33 | 996.237 | 243.49 | 164.81 | 113.44 | 80.93
x2 = 0.1036 | 1000.19 | 996.232 | 992.229 | 988.196 | 160.34 | 113.63 | 81.46 | 59.74
x2 = 0.2026 | 991.259 | 987.3 | 983.298 | 979.269 | 107.67 | 76.59 | 56.22 | 42.19
x2 = 0.3041 | 980.78 | 976.824 | 972.831 | 968.803 | 70.22 | 52.12 | 39.45 | 30.42
x2 = 0.4017 | 968.85 | 964.943 | 960.993 | 956.993 | 47.45 | 36.21 | 28.19 | 22.22
x2 = 0.4993 | 955.014 | 951.074 | 947.084 | 943.06 | 30.81 | 24.26 | 19.38 | 15.67
x2 = 0.5997 | 937.035 | 933.087 | 929.086 | 925.047 | 18.93 | 15.39 | 12.6 | 10.42
x2 = 0.6994 | 915.033 | 911.053 | 907.028 | 902.965 | 11.31 | 9.444 | 7.899 | 6.684
x2 = 0.8009 | 886.568 | 882.553 | 878.491 | 874.385 | 6.389 | 5.454 | 4.689 | 4.059
x2 = 0.8997 | 850.105 | 846.036 | 841.932 | 837.782 | 3.609 | 3.15 | 2.762 | 2.435

CCC(=O)[O-].CC[NH+]1CCNCC1 [N-ethylpiperazinium propionate] + CO
Conditions | mass density, 298.15 K [kg/m3] | mass density, 303.15 K [kg/m3] | mass density, 308.15 K [kg/m3] | mass density, 313.15 K [kg/m3] | viscosity, 298.15 K [mPa·s] | viscosity, 303.15 K [mPa·s] | viscosity, 308.15 K [mPa·s] | viscosity, 313.15 K [mPa·s]
x2 = 0 | 1008.36 | 1004.38 | 1000.33 | 996.237 | 243.49 | 164.81 | 113.44 | 80.93
x2 = 0.107 | 1004.94 | 1000.96 | 996.919 | 992.856 | 172.19 | 121.04 | 86.27 | 62.74
x2 = 0.21 | 1000.73 | 996.739 | 992.724 | 988.682 | 123.07 | 89.92 | 65.93 | 49.08
x2 = 0.297 | 996.263 | 992.299 | 988.292 | 984.255 | 84.02 | 63.49 | 47.38 | 36.14
x2 = 0.402 | 989.36 | 985.408 | 981.411 | 977.382 | 52.96 | 40.86 | 31.63 | 24.89
x2 = 0.5021 | 980.548 | 976.585 | 972.582 | 968.548 | 32.54 | 25.5 | 20.36 | 16.5
x2 = 0.5994 | 968.97 | 964.991 | 960.968 | 956.912 | 18.41 | 15.03 | 12.4 | 10.4
x2 = 0.7015 | 951.447 | 947.38 | 943.3 | 939.188 | 9.416 | 7.866 | 6.73 | 5.804
x2 = 0.7998 | 925.328 | 921.15 | 916.957 | 912.733 | 4.331 | 3.807 | 3.366 | 2.989
x2 = 0.8999 | 879.78 | 875.414 | 871.008 | 866.573 | 1.754 | 1.592 | 1.451 | 1.327
